From paper PMC3433414, “Oral Administration of the Pimelic Diphenylamide HDAC Inhibitor HDACi 4b Is Unsuitable for Chronic Inhibition of HDAC Activity in the CNS In Vivo” (PLoS ONE, 2012)
Read-outs that look alike come from different tables or passages of the source.

Experiments:
[1] = tested on: endogenous Class I HDACs/HDAC6; experiment: Cellular HDAC assay, Boc_Lys_Ac substrate, Jurkat E6.1 cells; format: cell-based
Protocol: Briefly, Jurkat E6.1 cells (obtained from the European Collection of Cell Cultures (ECACC)) were plated into 384 well plates at 75,000 cells/well in cellular assay buffer (RPMI without phenol red, 0.1% Fetal Bovine Serum, 10 mM HEPES, 1 mM Sodium Pyruvate). […] Fluorescent counts were read the following morning on the Perkin Elmer EnVision.
Each compound was tested in duplicate in concentration-response format on 3 separate days. […] A full dose response of reference compound was always included alongside the profiling, to ensure that assay parameters remained within acceptable limits.

Class IIa/HDAC8 HDACs = experiment: Cellular HDAC assay, Boc_Lys_TFA substrate, Jurkat E6.1 cells; format: cell-based; conditions: up to 50 µM
Protocol: Briefly, Jurkat E6.1 cells (obtained from the European Collection of Cell Cultures (ECACC)) were plated into 384 well plates at 75,000 cells/well in cellular assay buffer (RPMI without phenol red, 0.1% Fetal Bovine Serum, 10 mM HEPES, 1 mM Sodium Pyruvate). Compounds of interest were diluted in assay buffer (16-point concentration curve, 1% final DMSO) and were added to wells - unless stated otherwise in the results section - for a 2 h preincubation at 37°C prior to the addition of either 100 µM Boc_Lys_TFA or Boc_Lys_Ac. Cells were incubated for a further 3 h at 37°C, followed by the addition of a trypsin (1 mg/ml) and reference compound (Compound 26 or TSA) stop-step overnight to terminate the reaction and lyse the cells. Fluorescent counts were read the following morning on the Perkin Elmer EnVision. Z’ was 0.8 for both assays, with S:B of 19 for Boc_Lys_Ac assay, and 7 for Boc_Lys_TFA assay.
Each compound was tested in duplicate in concentration-response format on 3 separate days. For both biochemical and cellular assays, data is presented as % inhibition from maximal activity (maximal fluorescence response), which was defined as the fluorescence read in the presence of 1% DMSO, with 100% inhibition defined as the fluorescence read in the presence of substantial excess of the respective reference compounds (5 µM TSA, 50 µM Compound 26 depending on target). […]

HDAC7 = molecular target: T1, HDAC7 (Homo sapiens, UniProt Q8WUI4); experiment: Two-step fluorogenic deacetylase assay, recombinant HDAC7; format: biochemical; conditions: up to 50 µM
T1 construct: HDAC7 (αα 518-end; cat # 50007); purchased BPS Bioscience (San Diego, CA) 50007
From the text: To assess the biochemical and cellular potency of 4b and its conversion products/metabolites, we utilized the two-step fluorogenic assay which measures the HDAC-mediated catalytic conversion of synthetic acetylated lysine substrates. In brief, on deacetylation of the substrates by HDAC activity, a protease site is unmasked which allows subsequent trypsin-mediated cleavage and release of the highly flourescent AMC molecules in a subsequent step of the assay. The substrates used were Lys_Ac_AMC (Bachem I-1875) for HDAC3 and (Ac)Arg-Gly-Lys(Ac) (Bachem I-1925) for HDAC1 and HDAC2. […] However, the relatively labile and sterically more demanding trifluoracetyl group is readily hydrolyzed by the catalytically less avid Class IIa enzymes, allowing measurement of Class IIa activity using the 2-step fluorogenic assay. […]
For evaluation of the class selectivity of the compounds, we assessed inhibition against purified recombinant human full length HDAC1 (cat# 50051), HDAC2 (cat# 50052), HDAC3-NcoR2 (cat# 50003) and HDAC8 (cat# 50008): as representative of Class I activity; catalytic domain HDAC4(αα 648–1057), HDAC5 (αα 657–1123; cat # 50005), HDAC7 (αα 518-end; cat # 50007) and HDAC9 (αα 604–1066; cat # 50009) activity: representing all Class IIa activity; and full length HDAC6 (cat#50006): representing Class IIb activity. […]

T1 sequence (Q8WUI4 518-952 limits assumed): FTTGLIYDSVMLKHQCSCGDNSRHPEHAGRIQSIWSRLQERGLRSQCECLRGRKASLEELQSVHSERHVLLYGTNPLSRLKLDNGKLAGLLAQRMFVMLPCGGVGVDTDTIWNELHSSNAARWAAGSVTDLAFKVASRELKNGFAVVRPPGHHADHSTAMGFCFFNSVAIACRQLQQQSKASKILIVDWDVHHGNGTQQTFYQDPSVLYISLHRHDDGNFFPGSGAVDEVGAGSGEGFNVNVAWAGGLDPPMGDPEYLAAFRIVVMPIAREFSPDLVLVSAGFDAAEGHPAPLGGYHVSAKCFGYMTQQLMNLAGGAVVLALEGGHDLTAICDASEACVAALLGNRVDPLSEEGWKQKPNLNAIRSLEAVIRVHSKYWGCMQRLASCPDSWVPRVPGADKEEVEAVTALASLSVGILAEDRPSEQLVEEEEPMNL

SMILES	IC50 ([1]; 24 h pre-incubation with cells (maximal), read-out: cellular IC50, Boc_Lys_Ac substrate ('Class I' HDAC inhibition))	IC50 ([1]; Jurkat E6.1, standard protocol, total incubation time 5 h, read-out: cellular IC50, Boc_Lys_Ac substrate (Class I inhibition))	IC50 ([1]; dilution prepared 21 h previously in DMSO or aqueous buffer, no pre-incubation with cells, read-out: cellular IC50, Boc_Lys_Ac substrate)	IC50 ([1]; freshly prepared compound dilution, no pre-incubation with cells, read-out: cellular IC50, Boc_Lys_Ac substrate)	IC50 ([1]; no pre-incubation with cells, read-out: cellular IC50, Boc_Lys_Ac substrate)	cellular inhibition, Class IIa/HDAC8 substrate (Class IIa/HDAC8 HDACs)	activity against HDAC7 (HDAC7)	activity in the Class I cellular HDAC (Boc_Lys_Ac) assay ([1]; up to 50 µM, 5 h incubation)
Nc1ccccc1NC(=O)CCCCCC(=O)Nc1ccccc1 [Compound 4b]	1.8 µM	5.3 µM	15 µM	16 µM	16 µM	no inhibition	No activity	
O=C(CCCCCc1nc2ccccc2[nH]1)Nc1ccccc1 [Compound C1, 6-(1-H-benzo[d]imidazol-2-yl)-N-phenylhexanamide]								no activity
